Data reported in patent US20240294587A1, “K-RAS INHIBITOR” (THE JOHNS HOPKINS UNIVERSITY, priority 2021, published 2024).

Legend:
[1] = test system: S473 AKT phosphorylation in HEK293 cells; assay: Insulin-induced AKT phosphorylation in HEK293 cells; type: cell-based, human; conditions: peptide included during serum starvation and insulin stimulation (100 nM, 30 min), dose-dependent
Procedure: (§1) FIG. 3A is the amino acid sequence of the C-terminal region of K-Ras 4B—the helix α5 is highlighted and K-tetracosapeptide is underlined. Its predicted structure is shown on the right: positively- and negatively-charged surfaces are highlighted. FLAG-tagged GTP-bound K-Ras 4BG12V was incubated with GDP-loaded GFP-RhoA in the presence of K-tetracosapeptide (K-TC) or a scrambled peptide (50, 250, and 1250 nM). GFP-RhoA was pulled down using GFP-Trap beads. The pellets were analyzed by Western blotting using antibodies to FLAG and GFP (FIG. 3B) and quantified by band intensity (FIG. 3C). Bars are mean±SD (n=3). FIG. 3D is a schematic of the interaction of K-Ras 4B and RhoA in the presence of K-tetracosapeptide (K-TC) or a scrambled peptide. […] S473 AKT phosphorylation was analyzed by Western blotting (FIG. 3E) and band intensity of phospho-AKT relative to total AKT was quantified (FIG. 3F). Bars are mean±SD (n=3). After serum starvation, HEK293 cells were stimulated by insulin. […] S473 AKT phosphorylation was analyzed by Western blotting. (FIG. 3G) and band intensity was quantified (FIG. 3H). […]
Insulin-induced AKT phosphorylation in cells HEK293 cells and differentiated 3T3-L1 adipocytes were washed with serum-free DMEM and incubated with serum-free DMEM for 5 h. […] After clarification, cell lysates were analyzed by Western blotting.

[2] = test system: transport of GLUT4-GFP to the plasma membrane in 3T3-L1 adipocytes; assay: Insulin-induced translocation of GLUT4-GFP in 3T3-L1 adipocytes (confocal microscopy); type: cell-based, mouse; conditions: 3T3-L1 adipocytes carrying GLUT4-GFP; insulin 30 min after serum starvation
Procedure: (§2) Differentiation into adipocytes was induced in WT 3T3-L1 cells and RhoA-KO 3T3-L1 cells expressing the indicated FLAG-RhoA proteins. Differentiation was analyzed Western blotting using anti-adiponectin antibodies (FIG. 6A) and band intensity was quantified (FIG. 6B). Bars are mean f SD (n=3). FIG. 6C is images of WT and RhoA-KO 3T3-L1 cells stained with oil red O before and after induction of the differentiation. FIG. 6D is images RhoA-KO 3T3-L1 cells expressing the indicated RhoA proteins and analyzed by oil red O stain after induction of differentiation. Differentiated WT 3T3-L1 adipocytes were stimulated with insulin after serum starvation in the presence of TAT-K-tetracosapeptide or a TAT peptide. Phosphorylation of AKT and TBC1D4 was analyzed by Western blotting (FIG. 6E) and quantification of band intensity (FIG. 6F). Bars are mean±SD (n=3). […]
(§3) Insulin-induced AKT phosphorylation and translocation of GLUT4 in 3T3-L1 adipocytes To examine AKT phosphorylation, differentiated WT 3T3-L1 adipocytes were incubated in serum-free DMEM medium for 5 h and stimulated with 100 nM insulin for 30 min. […] After clarification, cell lysates were analyzed by Western blotting using antibodies to AKT (Cell Signaling, 9272) and phospho-AKT (Serine 473) (Cell Signaling, 9271). […]

[3] = test system: phosphorylation of AKT and TBC1D4 in 3T3-L1 adipocytes; assay: Insulin-induced phosphorylation of AKT and TBC1D4 in 3T3-L1 adipocytes; type: cell-based, mouse; conditions: differentiated WT 3T3-L1 adipocytes; peptide pre-treatment 5 h, 100 nM insulin 30 min
Procedure: as §2, §3

[4] = target: T1, KARATE (mTORC2 mixed with GTP-bound K-Ras 4BG12V and GDP-loaded RhoA) (Homo sapiens, UniProt P61586, G12V); assay: In vitro reconstitution of mTORC2-mediated AKT phosphorylation; type: biochemical; conditions: S473 AKT phosphorylation by Western blotting; peptide 50, 250 and 1250 nM
T1 construct: made in house; host or cells: K-Ras 4B G12V and RhoA from Dictyostelium cells; AKT1 purchased (Sigma, 14-279)
T1 sequence (P61586 whole entry G12V): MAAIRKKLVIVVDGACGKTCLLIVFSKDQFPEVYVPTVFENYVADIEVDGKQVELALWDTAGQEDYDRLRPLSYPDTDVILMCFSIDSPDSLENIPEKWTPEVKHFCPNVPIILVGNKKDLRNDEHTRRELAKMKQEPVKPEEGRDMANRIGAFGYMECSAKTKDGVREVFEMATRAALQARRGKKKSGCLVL
Procedure: as §1, with “(n=3).” for “(n=3). FIG. 3D is a schematic of the interaction of K-Ras 4B and RhoA in the presence of K-tetracosapeptide (K-TC) or a scrambled peptide.”, “3F).” for “3F). Bars are mean±SD (n=3). After serum starvation, HEK293 cells were stimulated by insulin.”
In vitro reconstitution of mTORC2-mediated AKT phosphorylation The kinase activity of mTORC1 and mTORC2 was measured as described previously by Huang, Sarbassov dos, and Senoo (Methods Mol Biol 821, 75-86(2012), Methods Mol Biol 821, 59-74(2012), and Nat Cell Biol 21, 867-878(2019), respectively) with some modifications. […] AKT phosphorylation was detected by Western blotting with anti-phospho-AKT (serine 473) antibodies (Cell Signaling, 9271).

[5] = target: T2, interaction of purified GTP-K-Ras 4B and GDP-RhoA (Homo sapiens, UniProt P61586, G12V); assay: In vitro protein-protein interaction assay (GFP-Trap pull-down, Western blotting); type: binding; conditions: peptide 50, 250 and 1250 nM, dose-dependent, FLAG-K-Ras 4BG12V pulled down with GFP-RhoA
T2 construct: made in house; host or cells: Dictyostelium cells
T2 sequence (P61586 whole entry G12V): as above
Procedure: as §1, with “(n=3).” for “(n=3). FIG. 3D is a schematic of the interaction of K-Ras 4B and RhoA in the presence of K-tetracosapeptide (K-TC) or a scrambled peptide.”, “3F).” for “3F). Bars are mean±SD (n=3). After serum starvation, HEK293 cells were stimulated by insulin.”
FLAG-tagged K-Ras4A and K-Ras 4B were eluted from anti-FLAG beads by incubation with 1 M arginine at room temperature for 5 min. Amounts of purified proteins were quantified on CBB-stained SDS-PAGE gels using ImageJ software with BSA as a standard. […] GFP-Trap beads were washed three times in 1 mM MgCl2, 100 mM potassium acetate, 25 mM HEPES (pH 7.4), and bound proteins were analyzed by Western blotting.

Sequence: GRKKRRQRRRPQGVDDAFYTLVREIRKHKEKMSKDG [TAT-K-tetracosapeptide, K-tetracosapeptide fused to a cell-permeable TAT peptide]
- effect on insulin-stimulated AKT phosphorylation in cells [1]: blocked in a dose-dependent manner
- effect on insulin-induced transport of GLUT4-GFP to the plasma membrane [2]: strongly inhibited
- effect on insulin-induced phosphorylation of AKT [3]: blocked
- effect on insulin-induced phosphorylation of TBC1D4 [3]: blocked

Sequence: GVDDAFYTLVREIRKHKEKMSKDG [K-tetracosapeptide, peptide of 24 amino acids corresponding to the helix α5 in K-Ras 4B]
- effect on AKT phosphorylation in vitro [4]: blocked
- effect on the interaction of purified GTP-K-Ras 4B and GDP-RhoA [5]: greatly decreased
